Source: US11129835B2, “Methods and compositions for the inhibition of PIN1” (Beth Israel Deaconess Medical Center, Inc., priority 2012, dated 2021)
Square brackets hold non-standard residues; d marks the D form. Peptide text beside a SMILES is read from it. pT = C[C@@H](OP(=O)(O)O)[C@H](N)C(=O)O; 2Nal = N[C@@H](Cc1ccc2ccccc2c1)C(=O)O; Bta = N[C@@H](Cc1csc2ccccc12)C(=O)O; Pip = O=C(O)[C@@H]1CCCCN1

Tests used:
[1] = target: T1, full length Pin1 (Homo sapiens, UniProt Q13526); assay: single-step fluorescence polarization-based displacement assay (FP-HTS), 384-well, HF488 probe; assay type: binding
T1 construct: FP-HTS in a 384-well plate format with full length Pin1
Method: A high-throughput screen for identifying Pin1 inhibitors was developed using a single-step fluorescence polarization-based displacement assay (FP-HTS).
The FP-HTS with a 5 nM probe and 200 nM Pin1 was used to conduct a pilot screen on a selected set of chemical libraries.
The anti-cancer effect of RAs was examined to determine whether it depends on RAR in the breast cancer cells.

[2] = target: T2, Pin1 (Homo sapiens, UniProt Q13526); assay: Pin1 fluorescence polarization competition assay with Tamra-probe (secondary); details: for Emax: read-out: Tamra Secondary Efficacy; for Tamra Secondary Curve Class: Tamra-probe
Method: An assay was developed for the identification of inhibitors of Pin1. […] Candidate compounds were screened in a concentration-titration series (e.g., 57 μM to 0.7 nM).
(§2) Pin1 (0.6 μM) was dispensed into black, solid 1536-well plates (32 rows by 48 columns) at 2 μL/well in Pin1 buffer (10 mM HEPES (pH 7.5), 10 mM NaCl, 0.01% Tween20, 1 mM DTT, and 1% glycerol). Next, 23 nL of compound or DMSO was delivered to each well using a pin tool (tip wash sequence: DMSO, IPA, MeOH, 3 s vacuum dry). Two μL of Pin1-1b-HiFluor488 peptide in buffer (10 mM HEPES (pH 7.5), 10 mM NaCl, 0.01% Tween20, 1 mM DTT, and 1% glycerol, 0.02 μM Pin1-1b-HiFluor488) or DMSO was then dispensed to each well using a pin tool (tip wash sequence: DMSO, IPA, MeOH, 3 s vacuum dry), and plates were incubated at room temperature for 10 min (Table 2). Each plate included controls with no candidate inhibitory compound (32 wells), with unlabeled Pin1-1c titration (3.5 mM to 0.020 mM in a 1:2 dilution series including 2 replicates per concentration; 32 wells), and without Pin1 (64 wells).
(§3) The fluorescence polarization signal of each well was measured on a ViewLux® plate reader using a 480/20 nm excitation filter and 540/25 nm S and P emission filters with a 20 second exposure with 2× binning (Table 2). Percent inhibitory activity was determined from corrected fluorescence polarization values.
(§4) Concentration-response curves were fitted to the signals arising from the resulting fluorescence polarization. The concentration-effect curves were then classified based on curve quality (r^2), response magnitude, and degree of measured activity. Compounds were subsequently categorized based on their curve class.
A further secondary assessment was accomplished by replacing the HiFluor-488-labeled probe with Tamra-probe, a red-shifted fluorophore.

[3] = target: T2, Pin1; assay: confirmatory Pin1 fluorescence polarization competition assay (Alexa488 reconfirmed); details: for Emax: read-out: Alexa488 Reconfirmed Efficacy; for Alexa488 Reconfirmed Curve Class: confirmatory retest;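 on all read-outs here: Pin1 competition with a HiFluor488-labelled peptide probe, read as fluorescence polarization after 10 min at room temperature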
Method: (§5) The goal of this assay was to identify small-molecule inhibitors of Pin1 using a fluorescence polarization competition assay (FIG. 1). […] Candidate compounds were screened in a concentration-titration series (e.g., 57 μM to 0.7 nM).
as §2, §3, §4

[4] = target: T2, Pin1; assay: Pin1 fluorescence polarization competition assay, primary qHTS (HiFluor-488 / Alexa488 probe);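 further: Pin1 protein with fluorescent peptide probe, compound displacement read by fluorescence polarization, percent inhibition derived from corrected polarization values, concentration-response curves in 1536-well format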
Method: as §5, §2, §3, §4
Curves showing change polarized fluorescence may be categorized into 5 classes. Class 1 includes complete curves, having 2 asymptotes and an r^2 value of ≥0.9, with an efficacy of either >80% (class 1.1) or ≤80% (class 1.2). Class 1 curves may also be classified as noisy curves when efficacy is >80% and r^2<0.9 (class 1.3) or when efficacy is ≤80% and r^2<0.9 (class 1.4). Class 2 includes incomplete curves having 1 asymptote and an r^2 value of either >0.9 (subclass a) or <0.9 (subclass b), with an efficacy of either >80% (class 2.1) or ≤80% (class 2.2). Class 2 curves may also be classified as noisy curves when efficacy is >80% and r^2<0.9 (class 2.3) or when efficacy is ≤80% and r^2<0.9 (class 2.4). Class 3 includes single point activity curves having 1 asymptote and an efficacy >3 SD from the mean activity of the sample field at the highest tested concentration. […] A fifth class captures any curves not otherwise classified (FIG. 4).

[5] = target: T2, Pin1; assay: PPIase assay; assay type: biochemical
Source text: The anti-cancer effect of RAs was examined to determine whether it depends on RAR in the breast cancer cells. […] In the PPIase assay, Pin1 activity was blocked by either cis- or trans-RA in a dose-dependent manner.

[6] = target: Pin1 and DAPK1 (Homo sapiens, UniProt Q13526); assay: association between Pin1 and DAPK1; assay type: binding
[7] = tested on: Pin1 K63A, S67E, R68/69A, H59A or S71E; assay: trans-RA binding to Pin1 point mutants
[8] = tested on: SKBR3; assay: cell viability of breast cancer cell lines; assay type: cell-based
Source text: (§1) This discrepancy between cell lines was correlated with the RAs' ability to suppress Pin1 expression. Pin1 level was decreased by treatment of RAs in drugs-responsive SKBR3 and T47D, but not in drugs-irresponsive normal cells, MCF10A, in which Pin1 target protein, cyclin D1, served as biomarker of in vivo Pin1 activity.

[9] = tested on: T47D; assay: cell viability of breast cancer cell lines; assay type: cell-based
Source text: as §1

[10] = tested on: MCF10A; assay: cell viability, normal cell line; assay type: cell-based
Source text: as §1

[11] = tested on: mouse embryonic fibroblast (WT MEF, Pin1 KO MEF); assay: trans-RA-mediated cell viability in WT and Pin1 knockout MEF; assay type: cell-based
Source text: To further confirm this premise, wild-type mouse embryonic fibroblast (WT MEF) and Pin1 knockout MEF (Pin1 KO MEF) were used to test trans-RA-mediated cell viability.

[12] = Alexa488 Primary Potency, primary qHTS
[13] = Average HTS Potency, average over Alexa488 primary, Alexa488 reconfirmed and Tamra secondary assays
[14] = read-out: Alexa488 Primary Efficacy

T1 sequence (Q13526 whole entry): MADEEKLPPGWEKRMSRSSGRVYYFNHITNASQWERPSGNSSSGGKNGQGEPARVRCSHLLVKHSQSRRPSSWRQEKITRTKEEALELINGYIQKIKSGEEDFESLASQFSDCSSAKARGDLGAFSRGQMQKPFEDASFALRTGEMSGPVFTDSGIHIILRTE
T2 sequence (Q13526 whole entry): as above
Pin1 and DAPK1, sequence (Q13526 whole entry): as above

| SMILES | IC50 [2] [µM] | Emax [2] [%] | IC50 [3] [nM] | Emax [3] [%] | IC50 [4, 12] [µM] | IC50 [4, 13] [µM] | Emax [4, 14] [%] | Emax ([4]; read-out: Average HTS Efficacy) [%] | Alexa488 Reconfirmed Curve Class [3] | Alexa488 Primary Curve Class ([4]; primary qHTS) | Tamra Secondary Curve Class [2] | also measured |
| --- | --- | --- | --- | --- | --- | --- | --- | --- | --- | --- | --- | --- |
| C[C@@H](OP(=O)(O)O)[C@H](NC(=O)[C@@H](N)Cc1csc2ccccc12)C(=O)N1CCCC[C@H]1C(=O)N[C@@H](Cc1ccc2ccccc2c1)C(=O)O [pTide, Bth-L-phos.Thr-Pip-Nal] (H-[Bta][pT][Pip][2Nal]-OH; N-terminus and C-terminus assumed) |  |  |  |  |  |  |  |  |  |  |  | displacement of HF488 probe from Pin1 [1]: displaced HF488 probe from Pin1; Kd ([1]; four residue core structure (pTide) of the HF488 fluorescent probes): 258 nM |
| Cc1ccc(C)n1-c1sccc1C(=O)O [Compound 18] | 2 | 95 | 2000 | 91 | 68 | 24 | 44 | 77 |  |  |  |  |
| COc1cc(C(c2c(C(=O)O)[nH]c3ccccc23)c2c(C(=O)O)[nH]c3ccccc23)ccc1OCc1ccccc1 [Compound 47] | 21 | 91 | 19000 | 84 | 79 | 40 | 26 | 67 | 2.2 (≤80% (class 2.2)) | 1.2 (≤80% (class 1.2)) |  |  |
| O=C(O)C1Nc2c(O)cc(Cl)c([N+](=O)[O-])c2C2C=CCC12 (centres unmarked) [Compound 2] | 3 | 69 | 2000 | 89 | 7 | 4 | 86 | 81 |  |  | 1.2 (≤80% (class 1.2)) |  |
| Cc1ccc(C)n1-c1cccc(C(=O)O)c1 [Compound 17] | 3 | 89 | 2000 | 83 | 10 | 5 | 64 | 79 |  |  |  |  |
| O=C(O)C1Nc2c(Cl)cc(Cl)c(Cl)c2C2C=CCC12 (centres unmarked) [Compound 5] | 2 | 61 | 2000 | 75 | 18 | 7 | 53 | 63 | 1.2 (≤80% (class 1.2)) | 1.2 (≤80% (class 1.2)) | 1.2 (≤80% (class 1.2)) |  |
| N#Cc1no[n+]([O-])c1C(=O)c1cccs1 [Compound 31] | 2 | 82 | 2000 | 85 | 4 | 2 | 74 | 80 |  |  |  |  |
| COc1ccc(C(=O)c2no[n+]([O-])c2C(=O)c2ccc(OC)cc2)cc1 [Compound 32] | 0.19 | 81 | 240 | 82 | 38 | 13 | 21 | 61 |  | 1.2 (≤80% (class 1.2)) |  |  |
| Cc1oc(-c2ccc3c(c2)OCCO3)cc1C(=O)NC(Cc1ccccc1)C(=O)O (centres unmarked) [Compound 21] | 8 | 72 | 11000 | 56 | 15 | 11 | 58 | 62 | 2.2 (≤80% (class 2.2)) | 1.2 (≤80% (class 1.2)) | 2.2 (≤80% (class 2.2)) |  |
| COc1ccccc1Nc1ccc2c(O)cc(S(=O)(=O)O)cc2c1 [Compound 14] | 8 | 85 | 1000 | 59 | 21 | 10 | 71 | 72 | 1.2 (≤80% (class 1.2)) | 1.2 (≤80% (class 1.2)) |  |  |
| O=C(O)c1[nH]c2ccccc2c1C(c1cc(Cl)cc([N+](=O)[O-])c1O)c1c(C(=O)O)[nH]c2ccccc12 [Compound 44] | 24 | 83 | 12000 | 63 | 36 | 24 | 90 | 79 | 2.2 (≤80% (class 2.2)) | 2.2 (≤80% (class 2.2)) | 2.2 (≤80% (class 2.2)) |  |
| O=C1OC(/C(=C\Nc2cc(Cl)ccc2O)[N+](=O)[O-])c2ccccc21 (centres unmarked) [Compound 12] | 1.1 | 92 | 1200 | 93 | 15 | 6 | 78 | 88 |  | 1.2 (≤80% (class 1.2)) |  |  |
| CC1=C(/C=C/C(C)=C/C=C/C(C)=C/C(=O)O)C(C)(C)CCC1 [trans-RA, all-trans retinoic acid] |  |  |  |  |  |  |  |  |  |  |  | Pin1 inhibition in the FP assay ([1]; cis-RA compared with trans-RA): even more prominent Pin1 inhibition than cis-RA; Pin1 activity in the PPIase assay [5]: blocked; association between Pin1 and DAPK1 [6]: blocked the association between Pin1 and DAPK1 in a dose-dependent manner, with trans being more potent; binding to Pin1 point mutants [7]: completely or significantly abolished; IC50, cell viability [8]: nano-molar range; IC50, cell viability [9]: nano-molar range; cell viability [10]: remained unaffected; cell viability, Pin1 KO MEF versus WT MEF [11]: Pin1 KO MEF was more resistant to trans-RA than WT MEF; cell viability, Pin1 KO MEF re-expressing Pin1 ([11]; stably expressing WT Pin1 or W34 K63A Pin1 mutant): Pin1 KO MEF stably expressing WT Pin1, but not W34 K63A Pin1 mutant, enabled cells to re-sensitize trans-RA |
| O=S(=O)(O)c1cc(O)c2cc(Nc3ccccc3)ccc2c1 [Compound 15] | 12 | 300 | 11000 | 71 | 10 | 11 | 27 | 133 | 2.2 (≤80% (class 2.2)) | 2.2 (≤80% (class 2.2)) |  |  |
| COc1ccc(NS(=O)(=O)c2ccc3c(c2)[C@H]2C=CC[C@H]2[C@@H](c2ccc(C(=O)O)cc2)N3)cc1 [Compound 40] | 24 | 96 | 10000 | 99 | 25 | 20 | 55 | 83 |  |  | 2.2 (≤80% (class 2.2)) |  |
